Measurements reported in patent EP0189101A2, “Compounds having mucolytic and bronchodilating activity, a process for their preparation and pharmaceutical composition containing them as active principle” (PROTER S.p.A., priority 1985, dated 1986).

What was measured:
suspension of 4% mucine = experiment: in vitro mucolytic activity, viscosity of a 4% mucine suspension; format: biochemical; settings: 0,00625 M, after hydrolysis with rat serum
Description: More specifically in the test of "in vitro" mucolytic activity with a suspension of 4% mucine (II Farmaco, ed.prat.33-379, 1978), and the molar concentration being the same (0,00625 M), after hydrolysis with rat serum, the 2-f(theophyllin-7-yl)-methyloxysuccinoylthiSïpropionamido acetic acid caused a reduction of viscosity by 11,2% to take place, which is like that of tiopronin (11,5%) and higher than that of N-acetylcysteine (7,6%).

[1] = test system: spasm induced by acetylcholine; experiment: Konzett-Rossler test, spasm induced by acetylcholine; format: in vivo; settings: spasm induced by acetylcholine (10 mcg/kg/e.v.); guinea pig
Protocol: (§1) (0.0276-0.1406), like that of theophylline of 0.0395 mM/kg/e.v. […] (0.0133-0,893) which is definitely and significatively lower than that of theophylline (0.1026 (0.0508-0.2072). The bronchodilating activity of the compounds of formula I is consequently definitely higher than that of theophylline.

[2] = test system: cough induced by citric acid; experiment: anticough activity, cough induced by citric acid; settings: guinea pig
[3] = test system: shock induced by histamine; experiment: antibronchospastic activity, shock induced by histamine; format: in vivo; settings: 0.25 mM/kg/i.p.; guinea pig; value after treatment
acute toxicity = settings: in vivo, ip; female mouse
[4] = test system: spasm induced by histamine; experiment: Konzett-Rossler test, spasm induced by histamine; format: in vivo; settings: spasm induced by histamine (2 mcg/kg/e.v.); guinea pig
Protocol: as §1

[5] = test system: fluid of the respiratory tract; experiment: mucolytic-expectorant activity, fluorescein elimination in the fluid of the respiratory tract; format: in vivo; settings: 1 mM/kg/os; in comparison with the controls

With CC(=O)N[C@@H](CS)C(=O)O [N-acetylcysteine] the reduction of viscosity (suspension of 4% mucine) was 7,6%.

For CC(SC(=O)CCC(=O)OCn1cnc2c1c(=O)n(C)c(=O)n2C)C(=O)NCC(=O)O (centres unmarked) [2-[(theophyllin-7-yl)methyloxysuccinoylthio]-propionamido acetic acid], the ED50 [1] was 0.0623 mM/kg/e.v, the “reduction of the cough” value ([2]; 100 mg/kg/i.p., in comparison with the controls) was 79% and the shock resistance [3] was 291.7 ± 43.2 s. For the same molecule, the LD50 (acute toxicity) was 481 mg/kg, the reduction of viscosity (suspension of 4% mucine) was 11,2% and the ED [4] was 0.0345 mM/kg/e.v. The “increase of the escretion of the colouring compound” value [5] was 86%.

For CC(S)C(=O)NCC(=O)O (centres unmarked) [tiopronin], the reduction of viscosity (suspension of 4% mucine) was 11,5% and the “increase of the escretion of the colouring compound” value [5] was 94%.

In the case of Cn1c(=O)c2[nH]cnc2n(C)c1=O [theophylline], the ED50 [1] was 0.0395 mM/kg/e.v, the shock resistance [3] was 316.8 ± 27.3 s and the ED [4] was 0.1026 (0.0508-0.2072) mM/kg/e.v.

For COc1ccc2c3c1O[C@H]1[C@@H](O)C=C[C@H]4[C@@H](C2)N(C)CC[C@@]341 [codeine phosphate], the “reduction of the cough” value ([2]; 5 mg/kg/i.p.) was 87%.
